Assay [1] deals with T1, human D1 receptor (Homo sapiens, UniProt P21728).
T1 construct: gene DRD1; human D1
The assay is described as follows: binding assay (method of Gray et al., […]). It counts as cell-based.

Assay [2] has as its target T2, non-human primate D1 receptor (Macaca fascicularis, UniProt G7P6Y1).
T2 construct: native receptor in striatal membrane homogenate
The assay is described as follows: radioligand competition binding. It counts as biochemical. Conditions: 1.0 nM [3H]-SCH23390, striatal membranes, 4 mM MgSO4, 0.5 mM EDTA, pH 7.4, 37 °C; Cheng-Prusoff.

Assay [3] deals with T1, human D1 receptor. The assay is described as follows: cAMP functional assay (method of Gray et al., […]). In kind it is cell-based. Conditions: partial agonist.

T1 sequence (P21728 whole entry): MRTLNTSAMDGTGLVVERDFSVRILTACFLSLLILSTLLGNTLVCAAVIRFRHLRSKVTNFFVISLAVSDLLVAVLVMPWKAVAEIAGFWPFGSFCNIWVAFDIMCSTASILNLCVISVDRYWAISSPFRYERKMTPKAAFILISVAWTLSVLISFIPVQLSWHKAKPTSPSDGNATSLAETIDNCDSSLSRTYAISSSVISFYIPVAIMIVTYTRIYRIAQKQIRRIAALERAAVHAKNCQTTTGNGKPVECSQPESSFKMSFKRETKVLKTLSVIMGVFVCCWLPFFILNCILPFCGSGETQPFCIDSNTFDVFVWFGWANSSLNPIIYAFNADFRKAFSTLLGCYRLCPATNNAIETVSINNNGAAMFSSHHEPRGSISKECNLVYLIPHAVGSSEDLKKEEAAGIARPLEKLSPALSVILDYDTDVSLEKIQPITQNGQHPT
T2 sequence (G7P6Y1 1-446): as the sequence (P21728 whole entry) above, with N311I counted along it

What is called Ki is the equilibrium dissociation constant of an inhibitor or competing ligand from its target. A low value points to higher affinity. Broadly, the EC50 is the concentration giving half of the maximal effect. A low value points to a more potent agent. PF-6294: the values for the inhibition constant (Ki) (at human D1 receptor [1]; in assay [2]) were 17 nM and 14 nM, respectively. Also, the EC50 on human D1 receptor [3] came out at 36 nM.
